Measured values from US9779901B2, “High temperature material compositions for high temperature thermal cutoff devices” (Therm-O-Disc, Incorporated, priority 2008, dated 2017).
Where two headings read alike, the source gives them in different places.

Tests used:
[1] = estimated melting point temperature ranges of candidate organic compounds (Table 2); some compounds have several values, partly in parentheses, because analytic techniques differ; cited from earlier work

Structure (SMILES) | Melting Point [1] | Melting Point [°C]
O=C1c2ccccc2-c2oc(=O)c3ccccc3c21 [Example 156] | 261-262° ° C. | 261 to 262
Oc1cc2cc3c(ccc4ccccc43)cc2c2ccccc12 [Example 173] | 263-264° ° C. | 263 to 264
O=C(O)c1cccc2c1-c1ccc([N+](=O)[O-])cc1C2=O [Example 163] | 262-262.5° ° C. | 262 to 262.5
O=[N+]([O-])c1c2ccccc2c([N+](=O)[O-])c2ccccc12 [Example 171] | 263° ° C. | 263
CC(=O)N[C@@H]1CCC[C@H](NC(C)=O)C1 [Example 166] | 262-264° ° C. | 262 to 264
COc1cc(CCN(C)C)ccc1O [Example 129] | 258-260° ° C. | 258 to 260
c1ccc2c(c1)[nH]c1ccc3cnccc3c12 [Example 99] | 254-255° ° C. | 254 to 255
c1ccc(-c2nc3ncncc3[nH]2)cc1 [Example 150] | 261-262° ° C. | 261 to 262
c1ccc(-c2n[nH]c(-c3ccccc3)c2-c2ccccc2)cc1 [Example 189] | 265° ° C. | 265
O=c1cc2oc3ccccc3oc-2cc1=O [Example 138] | 260-261° ° C. | 260 to 261
Oc1ccc2cc3ccccc3cc2c1 [Example 103] | 254° ° C. | 254
Nc1nc2c([N+](=O)[O-])cccc2s1 [Example 105] | 254° ° C. | 254
Cn1c(=O)c2ccn(C)c2n(C)c1=O [Example 192] | 265-266° ° C. | 265 to 266
CN(C)c1ccc(C(C)(C)C)cc1 [Example 82] | 250-253° ° C. | 250 to 253
Nc1cc(N)n(N)c(=S)n1 [Example 197] | 265° ° C. | 265
O=c1ccc2c(cc3ccc4cccc5ccc2c3c45)c1=O [Example 139] | 260° ° C. | 260
Cc1ccc2cnc(O)cc2c1 [Example 204] | 265° ° C. | 265
COc1c(O)cc2c(c1OC)-c1ccc(OC)c(=O)cc1C(NC=O)CC2 (stereo not shown) [Example 175] | 263-267° ° C. | 263 to 267
O=c1ccc2c(O)cccc2o1 [Example 31] | 244-247° ° C. | 244 to 247
CN1CC2CC(NC(=O)c3n[nH]c4ccccc34)CC(C1)N2C (stereo not shown) [Example 118] | 256-257° ° C. | 256 to 257
Oc1ccc(-c2cnc(-c3cccnc3)o2)cc1 [Example 115] | 255-256° ° C. | 255 to 256
CCNC(=O)c1cc2c(cn1)[nH]c1ccccc12 [Example 61] | 247-249° ° C. | 247 to 249
O=C1C(=O)c2cc3ccccc3cc2-c2ccccc21 [Example 143] | 260-262° ° C. | 260 to 262
Nc1nc(N)nc(Cc2ccccc2)n1 [Example 39] | 245° ° C. | 245

Structure (SMILES) | Melting Point [1] | Melting Point [°C]
O=c1c2ccccc2oc2nc3ccccc3nc12 [Example 155] | 261° ° C. | 261
CC1=C(/C=C/C(C)=C/C=C/C(C)=C/C=C/C=C(C)/C=C/C=C(C)/C=C/C2=C(C)C(=O)C(=O)C2(C)C)C(C)(C)C(=O)C1=O [Example 26] | 243° ° C. | 243
O=C1N=C(NO)c2ccccc21 [Example 182] | 264-266° ° C. | 264 to 266
Nc1nnc(N)n1N [Example 158] | 262-263° ° C. | 262 to 263
O=C1CC(=O)N(c2ccccc2)C(=O)N1 [Example 160] | 262° ° C. | 262
Cc1cc(=O)oc2cccc(O)c12 [Example 169] | 263° ° C. | 263
c1cnc2c(ccc3nccnc32)n1 [Example 20] | 242° ° C. | 242
O=[N+]([O-])c1ccc(NN=Cc2ccccn2)cc1 [Example 181] | 264° ° C. | 264
CC(=O)Nc1cc2ccccc2c2ccc3ccccc3c12 [Example 83] | 250-251° ° C. | 250 to 251
Nc1cccc2sc3ccccc3c(=O)c12 [Example 75] | 249-250° ° C. | 249 to 250
O=C1NC(=O)C2(CCC(O)C2)c2ccncc21 (stereo not shown) [Example 8] | 240-243° ° C. | 240 to 243
CC1(C)CC2(CC(C)(C)NC(=O)N2)NC(=O)N1 [Example 190] | 265-268° ° C. | 265 to 268
c1ccc2nc3nccnc3nc2c1 [Example 71] | 249° ° C. | 249
O=C1CCc2c1[nH]c1ccccc21 [Example 95] | 252-252.5° ° C. | 252 to 252.5
O=[N+]([O-])c1nc2ccccc2[nH]1 [Example 127] | 258° ° C. | 258
Cc1[nH]nc2c1N(c1ccccc1)C(=O)CC(=O)N2C [Example 159] | 262° ° C. | 262
Oc1cc2c3ccccc3ccc2c2ccccc12 [Example 68] | 248-250° ° C. | 248 to 250
O=Cc1c2ccccc2c(C=O)c2ccccc12 [Example 37] | 244-245° ° C. | 244 to 245
Oc1cc2ccccc2c2cc3ccc4ccccc4c3cc12 [Example 130] | 258-259° ° C. | 258 to 259
Cc1cc2[nH]c3ccccc3c2cc1C [Example 87] | 251-253° ° C. | 251 to 253
Cc1c(C)c(CO)c(C)c(C)c1CO [Example 51] | 246-248° ° C. | 246 to 248
Nc1ccc(C(=O)c2ccc(N)cc2)cc1 [Example 33] | 244-245° ° C. | 244 to 245
COc1ccccc1[C@H](C)C(=O)N1C[C@@H]2[C@H](C1)C(c1ccccc1)(c1ccccc1)CC[C@@]2(O)c1ccccc1OC [Example 34] | 244° ° C. | 244
Cc1nc2ccccc2c2ccc([N+](=O)[O-])cc12 [Example 23] | 243-245° ° C. | 243 to 245

Structure (SMILES) | Melting Point [1] | Melting Point [°C]
NC(=O)C1c2ccccc2-c2ccccc21 [Example 86] | 251° ° C. | 251
O=c1[nH]c(=S)oc2ccccc12 [Example 98] | 253° ° C. | 253
Nc1cccc2c1C(=O)c1c(N)cccc1C2=O [Example 198] | 265° ° C. | 265
O=[N+]([O-])c1cccc2nc[nH]c12 [Example 12] | 242° ° C. | 242
N#Cc1ccc(Nc2ccc(C#N)cc2)cc1 [Example 194] | 265-266° ° C. | 265 to 266
Cn1ccc(N)nc1=O [Example 145] | 260-265° ° C. | 260 to 265
O=c1ccc2ncc[nH]c-2c1 [Example 90] | 252-254° ° C. | 252 to 254
c1cc2c3c(cccc3c1)-c1nc3ccccc3nc1-2 [Example 10] | 241° ° C. | 241
Nc1ccn(C2C=CC(N)C(C(=O)O)O2)c(=O)n1 (stereo not shown) [Example 35] | 244-245° ° C. | 244 to 245
O=c1[nH][nH]c2ccccc12 [Example 44] | 245-247° ° C. | 245 to 247
CCOc1cccc(C#N)c1 [Example 5] | 241-244° ° C. | 241 to 244
C1=CCC2=C(C1)CC1=C(C2)CC2=C(CC=CC2)C1 [Example 4] | 241-242° ° C. | 241 to 242
Cc1cc(C)c(C=O)cc1C [Example 28] | 243° ° C. | 243
O=C1C=Cc2c(ccc3c2ccc2ccccc23)C1=O [Example 142] | 260-261° ° C. | 260 to 261
c1ccc(-c2ccnc(-c3cc(-c4ccccc4)cc(-c4cc(-c5ccccc5)ccn4)n3)c2)cc1 [Example 122] | 257-258° ° C. | 257 to 258
NC(=O)CCCC[C@@H]1SC[C@@H]2NC(=O)N[C@@H]21 [Example 13] | 242-244° ° C. | 242 to 244
O=c1c(=C2Cc3cccc4cccc2c34)c2cccc3cccc1c32 [Example 137] | 259-260° ° C. | 259 to 260
NNc1ccc(C(N)=O)nn1 [Example 72] | 249-250° ° C. | 249 to 250
NC(=O)C(CC(C(N)=O)C(N)=O)C(N)=O [Example 168] | 263-265° ° C. | 263 to 265
Nc1ccc2cc([N+](=O)[O-])ccc2n1 [Example 201] | 265° ° C. | 265
c1ccc2c(c1)-c1ccccc1C2C1c2ccccc2-c2ccccc21 [Example 56] | 246° ° C. | 246
CCN(CCCCN)c1ccc2c(=O)[nH][nH]c(=O)c2c1 [Example 136] | 259-260° ° C. | 259 to 260
C(#Cc1c2ccccc2c(C#Cc2ccccc2)c2ccccc12)c1ccccc1 [Example 88] | 251-253° ° C. | 251 to 253
